Assay results: patent US20260125382A1, “COMPOUNDS FOR INHIBITING OR DEGRADING CDK2 AND/OR CDK9 AND MEDICINAL USE THEREOF” (KOREA RESEARCH INSTITUTE OF CHEMICAL TECHNOLOGY, priority 2022, published 2026)

Assays:
CDK2 = target: T1, CDK2 (Homo sapiens, UniProt P24941); test: CDK protein degradation activity (Western blotting), CDK2; format: cell-based; conditions: MDA-MB-231 cells, 16 hours, Western blot
T1 construct: endogenous in cells; host or cells: MDA-MB-231
Procedure, shortened: (§1)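 MDA-MB-231 cells were treated with compound at final concentrations of 100 nM, 1 μM and 10 μM, or DMSO vehicle, for 16 h. Lysates were resolved by SDS-PAGE and immunoblotted for CDK2, CDK9 and tubulin, with band intensities quantified densitometrically.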

CDK9 = target: T2, CDK9 (Homo sapiens, UniProt P50750); test: CDK protein degradation activity (Western blotting), CDK9; format: cell-based; conditions: MDA-MB-231 cells, 16 hours, Western blot
T2 construct: endogenous in cells; host or cells: MDA-MB-231
Procedure, shortened: as §1

T2 sequence (P50750 whole entry): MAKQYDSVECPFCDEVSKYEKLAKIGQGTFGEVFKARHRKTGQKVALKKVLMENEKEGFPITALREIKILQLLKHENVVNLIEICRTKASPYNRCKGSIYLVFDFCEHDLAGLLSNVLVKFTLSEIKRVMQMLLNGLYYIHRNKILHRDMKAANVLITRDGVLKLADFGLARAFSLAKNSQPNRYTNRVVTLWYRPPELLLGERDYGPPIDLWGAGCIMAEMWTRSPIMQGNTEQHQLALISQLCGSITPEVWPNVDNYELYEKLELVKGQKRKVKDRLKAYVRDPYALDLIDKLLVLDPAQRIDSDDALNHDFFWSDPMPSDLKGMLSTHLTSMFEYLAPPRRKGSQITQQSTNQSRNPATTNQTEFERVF

Row | Structure (SMILES) | Enzyme degradation CDK2 (% remaining) @ 0.1 μM (CDK2) | Enzyme degradation CDK2 (% remaining) @ 1 μM (CDK2) | Enzyme degradation CDK2 (% remaining) @ 10 μM (CDK2) | Enzyme degradation CDK9 (% remaining) @ 0.1 μM (CDK9) | Enzyme degradation CDK9 (% remaining) @ 1 μM (CDK9) | Enzyme degradation CDK9 (% remaining) @ 10 μM (CDK9)
1 | N#Cc1cccc(C(=O)NC2CC(n3cnc4c(Nc5ccc(N6CCN(CC7CCN(C(=O)C8CN(c9ccc%10c(c9)C(=O)N([C@H]9CCC(=O)NC9=O)C%10=O)C8)CC7)CC6)cc5)ncnc43)C2)n1 (stereo partly drawn) [Compound 454, 6-cyano-N-((1s,3s)-3-(6-((4-(4-((1-(1-(2-(2,6-dioxopiperidin-3-yl)-1,3-dioxoisoindolin-5-yl)azetidin-3-carbonyl)piperidin-4-yl)methyl)piperazin-1-yl)phenyl)amino)-9H-purin-9-yl)cyclobutyl)picolinamide] | 30% | 20% | 10% | 0/0/0% | 0/0/0% | 0/0/0%
2 | N#Cc1cccc(C(=O)N[C@H]2C[C@@H](n3cnc4c(Nc5ccc(N6CCN(CC7CCN(C(=O)C8CCN(c9ccc%10c(c9)C(=O)N(C9CCC(=O)NC9=O)C%10=O)CC8)CC7)CC6)cc5)ncnc43)C2)n1 (stereo partly drawn) [Compound 455, 6-cyano-N-((1s,3s)-3-(6-((4-(4-((1-(1-(2-(2,6-dioxopiperidin-3-yl)-1,3-dioxoisoindolin-5-yl)piperidin-4-carbonyl)piperidin-4-yl)methyl)piperazin-1-yl)phenyl)amino)-9H-purin-9-yl)cyclobutyl)picolinamide] | 30% | 20% | 20% | 0/0/0% | 0/0/0% | 0/0/0%
3 | O=C1CC[C@H](N2C(=O)c3cc(F)c(N4CCC(C(=O)N5CCC(CN6CCN(c7ccc(Nc8ncnc9c8ncn9C8CC(NC(=O)Cc9ccccc9)C8)cc7)CC6)CC5)CC4)cc3C2=O)C(=O)N1 (stereo partly drawn) [Compound 456, N-((1s,3s)-3-(6-((4-(4-((1-(1-(2-(2,6-dioxopiperidin-3-yl)-6-fluoro-1,3-dioxoisoindolin-5-yl)piperidin-4-carbonyl)piperidin-4-yl)methyl)piperazin-1-yl)phenyl)amino)-9H-purin-9-yl)cyclobutyl)-2-phenylacetamide] | 50% | 60% | 70% | 0% | 0% | 10%
4 | O=C1CC[C@H](N2C(=O)c3cc(F)c(N4CCC(C(=O)N5CCC(CCN6CCN(c7ccc(Nc8ncnc9c8ncn9[C@H]8C[C@@H](NC(=O)Cc9ccccc9)C8)cc7)CC6)CC5)CC4)cc3C2=O)C(=O)N1 [Compound 457, N-((1s,3s)-3-(6-((4-(4-(2-(1-(1-(2-(2,6-dioxopiperidin-3-yl)-6-fluoro-1,3-dioxoisoindolin-5-yl)piperidin-4-carbonyl)piperidin-4-yl)ethyl)piperazin-1-yl)phenyl)amino)-9H-purin-9-yl)cyclobutyl)-2-phenylacetamide] | 80% | 60% | 60% | 20% | 0% | 0%
5 | O=C1CC[C@H](N2C(=O)c3cc(F)c(N4CCC(CCCN5CCN(c6ccc(Nc7ncnc8c7ncn8[C@H]7C[C@@H](NC(=O)Cc8ccccc8)C7)cc6)CC5)CC4)cc3C2=O)C(=O)N1 [Compound 458, N-((1s,3s)-3-(6-((4-(4-(3-(1-(2-(2,6-dioxopiperidin-3-yl)-6-fluoro-1,3-dioxoisoindolin-5-yl)piperidin-4-yl)propyl)piperazin-1-yl)phenyl)amino)-9H-purin-9-yl)cyclobutyl)-2-phenylacetamide] | 50/50/50% | 50/50/50% | 50/50/50% | 10% | 10% | 20%
6 | O=C1CC[C@H](N2C(=O)c3cc(F)c(N4CCC(C(=O)N5CCC(CCCN6CCN(c7ccc(Nc8ncnc9c8ncn9[C@H]8C[C@@H](NC(=O)Cc9ccccc9)C8)cc7)CC6)CC5)CC4)cc3C2=O)C(=O)N1 [Compound 459, N-((1s,3s)-3-(6-((4-(4-(3-(1-(1-(2-(2,6-dioxopiperidin-3-yl)-6-fluoro-1,3-dioxoisoindolin-5-yl)piperidin-4-carbonyl)piperidin-4-yl)propyl)piperazin-1-yl)phenyl)amino)-9H-purin-9-yl)cyclobutyl)-2-phenylacetamide] | 50% | 30% | 30% | 0/0/0% | 0/0/0% | 0/0/0%
7 | O=C1CC[C@H](N2C(=O)c3cc(F)c(N4CCC(C(=O)N5CCC6(CC5)CC(N5CCN(c7ccc(Nc8ncnc9c8ncn9C8CC(NC(=O)Cc9ccccc9)C8)cc7)CC5)C6)CC4)cc3C2=O)C(=O)N1 (stereo partly drawn) [Compound 460, N-((1s,3s)-3-(6-((4-(4-(7-(1-(2-(2,6-dioxopiperidin-3-yl)-6-fluoro-1,3-dioxoisoindolin-5-yl)piperidin-4-carbonyl)-7-azaspiro[3.5]nonan-2-yl)piperazin-1-yl)phenyl)amino)-9H-purin-9-yl)cyclobutyl)-2-phenylacetamide] | 40/40/40% | 40/40/40% | 40/40/40% | 0/0/0% | 0/0/0% | 0/0/0%

The remaining lines, values ahead:

Row | Enzyme degradation CDK2 (% remaining) @ 0.1 μM (CDK2) | Enzyme degradation CDK2 (% remaining) @ 1 μM (CDK2) | Enzyme degradation CDK2 (% remaining) @ 10 μM (CDK2) | Enzyme degradation CDK9 (% remaining) @ 0.1 μM (CDK9) | Enzyme degradation CDK9 (% remaining) @ 1 μM (CDK9) | Enzyme degradation CDK9 (% remaining) @ 10 μM (CDK9) | Structure (SMILES)
8 | 70% | 40% | 40% | 30% | 0% | 0% | O=C1CCC(N2C(=O)c3cc(F)c(N4CCC(C(=O)N5CCC(CN6CCC(CCNc7ncnc8c7ncn8[C@H]7C[C@@H](NC(=O)Cc8ccccc8)C7)CC6)CC5)CC4)cc3C2=O)C(=O)N1 (stereo partly drawn) [Compound 461, N-((1s,3s)-3-(6-((2-(1-((1-(1-(2-(2,6-dioxopiperidin-3-yl)-6-fluoro-1,3-dioxoisoindolin-5-yl)piperidin-4-carbonyl)piperidin-4-yl)methyl)piperidin-4-yl)ethyl)amino)-9H-purin-9-yl)cyclobutyl)-2-phenylacetamide]
9 | 30% | 20% | 20% | 0/0/0% | 0/0/0% | 0/0/0% | O=C1CC[C@H](N2C(=O)c3cc(F)c(N4CCC(C(=O)N5CCC(CN6CCN(c7ccc(Nc8ncnc9c8ncn9[C@H]8C[C@@H](NC(=O)c9c(Cl)cccc9Cl)C8)cc7)CC6)CC5)CC4)cc3C2=O)C(=O)N1 [Compound 462, 2,6-dichloro-N-((1s,3s)-3-(6-((4-(4-((1-(1-(2-(2,6-dioxopiperidin-3-yl)-6-fluoro-1,3-dioxoisoindolin-5-yl)piperidin-4-carbonyl)piperidin-4-yl)methyl)piperazin-1-yl)phenyl)amino)-9H-purin-9-yl)cyclobutyl)benzamide]
10 | 30/30/30% | 30/30/30% | 30/30/30% | 0/0/0% | 0/0/0% | 0/0/0% | O=C1CCC(N2C(=O)c3cc(F)c(N4CCC(C(=O)N5CCC(CCN6CCN(c7ccc(Nc8ncnc9c8ncn9[C@H]8C[C@@H](NC(=O)c9c(Cl)cccc9Cl)C8)cc7)CC6)CC5)CC4)cc3C2=O)C(=O)N1 (stereo partly drawn) [Compound 463, 2,6-dichloro-N-((1s,3s)-3-(6-((4-(4-(2-(1-(1-(2-(2,6-dioxopiperidin-3-yl)-6-fluoro-1,3-dioxoisoindolin-5-yl)piperidin-4-carbonyl)piperidin-4-yl)ethyl)piperazin-1-yl)phenyl)amino)-9H-purin-9-yl)cyclobutyl)benzamide]
11 | 40% | 30% | 30% | 0/0/0% | 0/0/0% | 0/0/0% | O=C1CC[C@H](N2C(=O)c3cc(F)c(N4CCC(C(=O)N5CCC6(CC5)CC(N5CCN(c7ccc(Nc8ncnc9c8ncn9C8CC(NC(=O)c9c(Cl)cccc9Cl)C8)cc7)CC5)C6)CC4)cc3C2=O)C(=O)N1 (stereo partly drawn) [Compound 464, 2,6-dichloro-N-((1s,3s)-3-(6-((4-(4-(7-(1-(2-(2,6-dioxopiperidin-3-yl)-6-fluoro-1,3-dioxoisoindolin-5-yl)piperidin-4-carbonyl)-7-azaspiro[3.5]nonan-2-yl)piperazin-1-yl)phenyl)amino)-9H-purin-9-yl)cyclobutyl)benzamide]
12 | 50/50/50% | 50/50/50% | 50/50/50% | 0/0/0% | 0/0/0% | 0/0/0% | Cc1cccc(C(=O)N[C@H]2C[C@@H](n3cnc4c(Nc5ccc(N6CCN(C7CC8(CCN(C(=O)C9CCN(c%10cc%11c(cc%10F)C(=O)N([C@H]%10CCC(=O)NC%10=O)C%11=O)CC9)CC8)C7)CC6)cc5)ncnc43)C2)n1 [Compound 465, N-((1s,3s)-3-(6-((4-(4-(7-(1-(2-(2,6-dioxopiperidin-3-yl)-6-fluoro-1,3-dioxoisoindolin-5-yl)piperidin-4-carbonyl)-7-azaspiro[3.5]nonan-2-yl)piperazin-1-yl)phenyl)amino)-9H-purin-9-yl)cyclobutyl)-6-methylpicolinamide]
